# Reference: US11434194B2, “Amorphous form of vilanterol trifenatate and processes for the preparation thereof” (Hovione Scientia Limited, priority 2017, dated 2022)
# Experiments:
# Assay type in all cases: physicochemical
# [1] = Visual solubility in differing solvents (European Pharmacopeia 6.0 section 5.11)
# Procedure: Visual solubility of the amorphous form of the invention in differing solvents was assessed according to the procedure described in the European Pharmacopeia 6.0 section 5.11. p. 659 (see corresponding SI dissolution ranges in Table 2), and compared with that for Form 1. The following method was used: Dissolving procedure: the compound was shaken vigorously for 1 min and placed in a constant temperature device for 15 min at 25.0±0.5° C. If the compound was not completely dissolved, the shaking was repeated for 1 min and the tube placed in a constant temperature device for 15 min. Method: 50 mg of compound was weighed in a stoppered tube, 0.05 mL of the solvent added and the Dissolving Procedure (see above) followed. If the compound was completely dissolved, it was defined very soluble. If the compound was not completely dissolved, a further 0.45 mL of the solvent was added and the Dissolving Procedure (see above) followed. […] If the compound was still not completely dissolved, still further 1.0 mL of the solvent was added and the Dissolving Procedure (see above) followed. If the compound was completely dissolved, it was defined as soluble. If the compound was still not completely dissolved, another 3.5 mL of the solvent was added and the Dissolving Procedure (see above) followed. […] If the compound was still not completely dissolved, the compound was slightly soluble or very slightly soluble. In this case, the suspension was heated up to the boiling point (max 80° C.) under stirring to verify the solubility at high temperature. The hot solution was afterwards cooled to room temperature to observe whether the compound precipitates. If the compound at room, temperature was completely dissolved, it is soluble at high temperature. [table]
# [2] = Solid-state storage stability (XRPD pattern, HPLC chromatogram)
# Procedure: Such conditions reflect conditions similar to those in which the current medicaments (mentioned above) may be stored.
# HPLC analysis was conducted using a waters system under the following conditions:
# X-ray powder patterns were recorded using the PANalytical X'Pert PRO X-ray diffraction system equipped with a PW3373/00 Cu LFF DK184511 X-Ray tube and a X'Celerator RTMS (Real Time Multiple Strip) detector under the following conditions: […]
# [3] = Dynamic vapour sorption (DVS) analysis / kinetic moisture sorption, hygroscopicity; details: for Change In Mass (%) Desorption / Change In Mass (%) Hysteresis / Change In Mass (%) Sorption: 25° C.
# Procedure: The values in the table are weight % variations that result from the use of the European Pharmacopoeia equation provided below. The hygroscopicity value is indicated from the sorption row at 80% RH of cycle 1.
# The sample was subjected to DVS measuring using SMS-DVS intrinsic. The kinetic moisture sorption measurement was performed at 25° C. and in a RH % range described in the following: • From 40% RH to 90% RH • Form 90% RH to 0% RH • From 0% RH to 90% RH • From 90% RH to 0% RH
# The sample was analyzed by XRPD after the analysis.
# The hygroscopicity was calculated using the following equation: % Weight Change=[(W2−W1)/W1]*100, (1) wherein W1 is the weight of the sample at the start of the experiment (25° C. and 40% RH), and W2 is the weight of the sample at 25° C. and 80% RH in the first absorption cycle.
smiles,measurement,setting,value
"OCc1cc([C@@H](O)CNCCCCCCOCCOCc2c(Cl)cccc2Cl)ccc1O [Form I, 4-((1R)-2-((6-(2-((2,6-Dichlorophenyl)methoxy)ethoxy)-hexyl)amino)-1-hydroxyethyl)-2-(hydroxymethyl)phenol triphenylacetate]",visual solubility,"[1]; 1,4-dioxane at 25° C.",freely soluble
same,visual solubility,[1]; THF at 25° C.,freely soluble
same,visual solubility,[1]; ethanol at 25° C.,sparingly soluble
same,visual solubility,[1]; methanol at 25° C.,soluble
"OCc1cc([C@@H](O)CNCCCCCCOCCOCc2c(Cl)cccc2Cl)ccc1O [amorphous vilanterol trifenatate, 4-((1R)-2-((6-(2-((2,6-Dichlorophenyl)methoxy)ethoxy)-hexyl)amino)-1-hydroxyethyl)-2-(hydroxymethyl)phenol triphenylacetate]",XRPD patterns before and after exposure,[2]; 60% RH at 25° C. (7 days),unchanged
same,time stable on storage (XRPD pattern and HPLC chromatograms remained the same),[2]; room temperature,at least 5 months
same,mass increase (dynamic vapour sorption analysis; hygroscopicity value),"[3]; 80% RH at 25° C., sorption, cycle 1",1.34%
same,hygroscopicity classification (European Pharmacopeia version 7),"[3]; % weight change from 40% RH to 80% RH at 25° C., first absorption cycle",slightly hygroscopic
same,Change In Mass (%) Desorption,"[3]; Cycle 1, target RH 0.0%",1.186%
same,Change In Mass (%) Desorption,"[3]; Cycle 1, target RH 10.0%",1.224%
same,Change In Mass (%) Desorption,"[3]; Cycle 1, target RH 20.0%",1.257%
same,Change In Mass (%) Desorption,"[3]; Cycle 1, target RH 30.0%",1.298%
same,Change In Mass (%) Desorption,"[3]; Cycle 1, target RH 40.0%",1.333%
same,Change In Mass (%) Hysteresis,"[3]; Cycle 1, target RH 40.0%",1.332%
same,Change In Mass (%) Sorption,"[3]; Cycle 1, target RH 40.0%",0.001%
same,Change In Mass (%) Desorption,"[3]; Cycle 1, target RH 50.0%",1.368%
same,Change In Mass (%) Hysteresis,"[3]; Cycle 1, target RH 50.0%",1.101%
same,Change In Mass (%) Sorption,"[3]; Cycle 1, target RH 50.0%",0.267%
same,Change In Mass (%) Desorption,"[3]; Cycle 1, target RH 60.0%",1.401%
same,Change In Mass (%) Hysteresis,"[3]; Cycle 1, target RH 60.0%",0.784%
same,Change In Mass (%) Sorption,"[3]; Cycle 1, target RH 60.0%",0.618%
same,Change In Mass (%) Desorption,"[3]; Cycle 1, target RH 70.0%",1.437%
same,Change In Mass (%) Hysteresis,"[3]; Cycle 1, target RH 70.0%",0.423%
same,Change In Mass (%) Sorption,"[3]; Cycle 1, target RH 70.0%",1.013%
same,Change In Mass (%) Desorption,"[3]; Cycle 1, target RH 80.0%",1.474%
same,Change In Mass (%) Hysteresis,"[3]; Cycle 1, target RH 80.0%",0.131%
same,Change In Mass (%) Sorption,"[3]; Cycle 1, target RH 80.0%",1.344%
same,Change In Mass (%) Desorption,"[3]; Cycle 1, target RH 90.0%",1.516%
same,Change In Mass (%) Sorption,"[3]; Cycle 1, target RH 90.0%",1.516%
same,Change In Mass (%) Desorption,"[3]; Cycle 2, target RH 0.0%",1.063%
same,Change In Mass (%) Sorption,"[3]; Cycle 2, target RH 0.0%",1.186%
same,Change In Mass (%) Desorption,"[3]; Cycle 2, target RH 10.0%",1.186%
same,Change In Mass (%) Hysteresis,"[3]; Cycle 2, target RH 10.0%",0.006%
same,Change In Mass (%) Sorption,"[3]; Cycle 2, target RH 10.0%",1.180%
same,Change In Mass (%) Desorption,"[3]; Cycle 2, target RH 20.0%",1.214%
same,Change In Mass (%) Hysteresis,"[3]; Cycle 2, target RH 20.0%",0.035%
same,Change In Mass (%) Sorption,"[3]; Cycle 2, target RH 20.0%",1.179%
same,Change In Mass (%) Desorption,"[3]; Cycle 2, target RH 30.0%",1.243%
same,Change In Mass (%) Hysteresis,"[3]; Cycle 2, target RH 30.0%",0.061%
same,Change In Mass (%) Sorption,"[3]; Cycle 2, target RH 30.0%",1.182%
same,Change In Mass (%) Desorption,"[3]; Cycle 2, target RH 40.0%",1.269%
same,Change In Mass (%) Hysteresis,"[3]; Cycle 2, target RH 40.0%",0.079%
same,Change In Mass (%) Sorption,"[3]; Cycle 2, target RH 40.0%",1.189%
same,Change In Mass (%) Desorption,"[3]; Cycle 2, target RH 50.0%",1.294%
same,Change In Mass (%) Hysteresis,"[3]; Cycle 2, target RH 50.0%",0.090%
same,Change In Mass (%) Sorption,"[3]; Cycle 2, target RH 50.0%",1.205%
same,Change In Mass (%) Desorption,"[3]; Cycle 2, target RH 60.0%",1.320%
same,Change In Mass (%) Hysteresis,"[3]; Cycle 2, target RH 60.0%",0.093%
same,Change In Mass (%) Sorption,"[3]; Cycle 2, target RH 60.0%",1.228%
same,Change In Mass (%) Desorption,"[3]; Cycle 2, target RH 70.0%",1.345%
same,Change In Mass (%) Hysteresis,"[3]; Cycle 2, target RH 70.0%",0.084%
same,Change In Mass (%) Sorption,"[3]; Cycle 2, target RH 70.0%",1.262%
same,Change In Mass (%) Desorption,"[3]; Cycle 2, target RH 80.0%",1.369%
same,Change In Mass (%) Hysteresis,"[3]; Cycle 2, target RH 80.0%",0.061%
same,Change In Mass (%) Sorption,"[3]; Cycle 2, target RH 80.0%",1.308%
same,Change In Mass (%) Desorption,"[3]; Cycle 2, target RH 90.0%",1.393%
same,Change In Mass (%) Sorption,"[3]; Cycle 2, target RH 90.0%",1.393%
same,visual solubility,"[1]; 1,4-dioxane at 25° C., listed as amorphous of vilanterol trifenatate",soluble
same,visual solubility,[1]; ethanol at 50° C.,sparingly soluble
